# From patent publication US10576097B2, “URLC10-derived peptide and vaccine containing same” (ONCOTHERAPY SCIENCE, INC., priority 2014, dated 2020)
# Experiments:
# Type in all cases: cell-based, human
# peptide-pulsed C1R-A03 = assay: In vitro CTL induction, IFN-gamma ELISPOT assay (HLA-A*0301); settings: CTLs induced from HLA-A*0301-positive donors, against peptide-pulsed C1R-A03, compared with control
# Source text: (§1) Monocyte-derived dendritic cells (DCs) were used as the antigen-presenting cell to induce a cytotoxic T lymphocyte (CTL) response against peptides presented on human leukocyte antigens (HLAs). As described in the other sections, DCs were generated in vitro (Nakahara S et al., Cancer Res 2003, 63(14): 4112-8). Specifically, peripheral-blood mononuclear cells isolated from healthy volunteers (HLA-A*0301-positive) with the Ficoll-Paque plus solution (Pharmacia) were separated by attaching to plastic tissue culture dishes (Becton Dickinson) and concentrated as a monocyte fraction. The monocyte-concentrated population was cultured in the presence of 1000 IU/ml granulocyte macrophage colony-stimulating factor (R&D System) and 1000 IU/ml interleukin(IL)-4 (R&D System) in an AIM-V medium (Invitrogen) containing 2% heat-inactivated autologous serum (AS). After seven days of culturing, the cytokine-induced DCs were pulsed with 20 micro-g/ml each of the synthesized peptides in an AIM-V medium at 37 degrees C. for three hours in the presence of 3 micro-g/ml beta 2-microglobulin. The generated cells appeared to express on their cell surface DC-associated molecules such as CD80, CD83, CD86 and HLA class II (data not shown). Next, these peptide-pulsed DCs were inactivated by X-ray irradiation (20 Gy), and mixed in a 1:20 ratio with autologous CD8^+ T cells obtained by positive selection using the CD8 Positive Isolation Kit (Dynal). These culture products were seeded in a 48-well plate (Corning). Each well was made to contain 1.5×10^4 peptide-pulsed DCs, 3×10^5 CD8^+ T cells and 10 ng/ml IL-7 (R&D System) in 0.5 ml of the AIM-V/2% AS medium. Three days later, these culture products were added with a final concentration of 20 IU/ml IL-2 (CHIRON). On day 7 and day 14, T cells were further stimulated with peptide-pulsed autologous DCs. The DCs were prepared every time by the same method as above. On day 21, after the third peptide stimulation, CTLs were examined against the peptide-pulsed C1R-A03 by a human interferon (IFN)-gamma enzyme-linked immunospot (ELISPOT) assay (Tanaka H et al., Br J Cancer 2001, 84(1): 94-9; Umano Y et al., Br J Cancer 2001, 84(8): 1052-7; Uchida N et al., Clin Cancer Res 2004, 10(24): 8577-86; Suda T et al., Cancer Sci 2006, 97(5): 411-9; Watanabe T et al., Cancer Sci 2005, 96(8): 498-506).
# (§2) To examine specific CTL activity, an IFN-gamma ELISPOT assay and an IFN-gamma enzyme-linked immunosorbent assay (ELISA) were performed. Specifically, peptide-pulsed C1R-A03 (1×10^4 cells/well) was prepared as the stimulator cell. The induced CTLs, i.e., CTL lines and CTL clones, were used as the responder cell. The IFN-gamma ELISPOT assay and IFN-gamma ELISA were performed according to the manufacturer's manual.
# [1] = system: C1R-A03 cells pulsed with the respective peptide; assay: IFN-gamma ELISA of CTL lines and CTL clones (HLA-A*0301)
# Experimental: CTLs were propagated in culture using methods similar to those disclosed by Riddell et al. (Walter E A et al., N Engl J Med 1995, 333(16): 1038-44; Riddell S R et al., Nat Med 1996, 2(2): 216-23). The CTLs were co-cultured in a total of 25 ml AIM-V medium containing 5% AS (AIM-V/5% AS) and 40 ng/ml anti-CD3 antibody with two types of Mitomycin C-treated human B lymphoblastoid cell lines at 5×10^6 cells/flask. One day after beginning of the culturing, 120 IU/ml IL-2 was added to the culture. On days 5, 8 and 11, a fresh AIM-V/5% AS medium containing 30 IU/ml IL-2 was added to the culture (Tanaka H et al., Br J Cancer 2001, 84(1): 94-9; Umano Y et al., Br J Cancer 2001, 84(8): 1052-7; Uchida N et al., Clin Cancer Res 2004, 10(24): 8577-86; Suda T et al., Cancer Sci 2006, 97(5): 411-9; Watanabe T et al., Cancer Sci 2005, 96(8): 498-506).
# Dilution of CTLs was carried out to make 1 and 10 cells/well in 96 round-bottomed microtiter plates (Nalge Nunc International). The CTLs were co-cultured with two types of Mitomycin C-treated human B lymphoblastoid cell lines at 1×10^4 cells/well in a total of 150 micro-l/well 5% AS-containing AIM-V (AIM-V/5% AS) medium with 30 ng/ml anti-CD3 antibody and 125 IU/ml IL-2. Ten days later, IL-2 was added to the medium at 50 micro-l/well to reach a final concentration of 125 IU/ml. On day 14, the CTL activity was tested, and the CTL clones were propagated using the same method as described above (Uchida N et al., Clin Cancer Res 2004, 10(24): 8577-86; Suda T et al., Cancer Sci 2006, 97(5): 411-9; Watanabe T et al., Cancer Sci 2005, 96(8): 498-506).
# as §2
# peptide-pulsed C1R-A11 = assay: In vitro CTL induction, IFN-gamma ELISPOT assay (HLA-A*1101); settings: CTLs induced from HLA-A*1101-positive donors, against peptide-pulsed C1R-A11, compared with control
# Source text: as §1, with “(HLA-A*1101-positive)” for “(HLA-A*0301-positive)”, “C1R-A11” for “C1R-A03”
# as §2, with “C1R-A11” for “C1R-A03”
Sequence,peptide-specific CTL activity (IFN-gamma production) (peptide-pulsed C1R-A03),also measured
"MPFFYLKCCK (a peptide derived from URLC10) [SEQ ID NO 22, URLC10-derived 10mer peptide, start position 166]",potent IFN-gamma production,"IFN-gamma production of CTL clone ([1]; CTL clone by limiting dilution, against peptide-pulsed C1R-A03 cells): Potent IFN-gamma production; IFN-gamma production of CTL line ([1]; CTL line against peptide-pulsed versus non-pulsed target cells): potent IFN-gamma production"
"ILLLLASIAA (a peptide derived from URLC10) [SEQ ID NO 30, URLC10-derived 10mer peptide, start position 209]",potent IFN-gamma production,
"LLLVVALPR (a peptide derived from URLC10) [SEQ ID NO 5, URLC10-derived 9mer peptide, start position 64]",potent IFN-gamma production,
"AMERPKPEEK (a peptide derived from URLC10) [SEQ ID NO 16, URLC10-derived 10mer peptide, start position 149]",potent IFN-gamma production,
"RQAPAGGRR (a peptide derived from URLC10) [SEQ ID NO 8, URLC10-derived 9mer peptide, start position 7]",specific IFN-gamma production was not observed,
"RGGRGSPYR (a peptide derived from URLC10) [SEQ ID NO 9, URLC10-derived 9mer peptide, start position 18]",,peptide-specific CTL activity (IFN-gamma production) (peptide-pulsed C1R-A11): potent IFN-gamma production
"IAAVKIFPR (a peptide derived from URLC10) [SEQ ID NO 3, URLC10-derived 9mer peptide, start position 127]",potent IFN-gamma production,
"CSAGCAAMER (a peptide derived from URLC10) [SEQ ID NO 15, URLC10-derived 10mer peptide, start position 143]",potent IFN-gamma production,
"ALLLVVALPR (a peptide derived from URLC10) [SEQ ID NO 12, URLC10-derived 10mer peptide, start position 63]",potent IFN-gamma production,peptide-specific CTL activity (IFN-gamma production) (peptide-pulsed C1R-A11): specific IFN-gamma production was not observed
"KIFPRFFMV (a peptide derived from URLC10) [SEQ ID NO 6, URLC10-derived 9mer peptide, start position 131]",potent IFN-gamma production,
"VIAAVKIFPR (a peptide derived from URLC10) [SEQ ID NO 14, URLC10-derived 10mer peptide, start position 126]",potent IFN-gamma production,
"LLEEPMPFFY (a peptide derived from URLC10) [SEQ ID NO 18, URLC10-derived 10mer peptide, start position 161]",potent IFN-gamma production,
"RVWCHVCER (a peptide derived from URLC10) [SEQ ID NO 1, URLC10-derived 9mer peptide, start position 98]",potent IFN-gamma production,peptide-specific CTL activity (IFN-gamma production) (peptide-pulsed C1R-A11): potent IFN-gamma production
"GLWLAILLLL (a peptide derived from URLC10) [SEQ ID NO 27, URLC10-derived 10mer peptide, start position 204]",potent IFN-gamma production,
"GPPINSSVFK (a peptide derived from URLC10) [SEQ ID NO 17, URLC10-derived 10mer peptide, start position 183]",potent IFN-gamma production,
